ChEMBL document CHEMBL4396913, “Synthesis and biological evaluation of hybrid quinolone-based quaternary ammonium antibacterial agents” (Eur J Med Chem, 2019)
Values after ≈ are worked out from the molar mass of the structure shown.

Experiments:
[1] = Lipophilicity, log k of the compound at 100 ug/ml by micellar electrokinetic chromatography; format: physicochemical
[2] = tested on: Staphylococcus aureus; test: Antibacterial activity against Staphylococcus aureus ATCC 6538 cultured in MH medium assessed as reduction in bacterial growth incubated for 48 hrs by microbroth dilution method; format: functional; conditions: ATCC 6538, 48 h
[3] = tested on: Staphylococcus aureus; test: Bactericidal activity against Staphylococcus aureus ATCC 6538 cultured in MH medium assessed as reduction in bacterial survival incubated for 48 hrs by microbroth dilution method; format: functional; conditions: ATCC 6538, 48 h
[4] = tested on: Staphylococcus aureus; test: Antibacterial activity against methicillin resistant Staphylococcus aureus N315 cultured in MH medium assessed as reduction in bacterial growth incubated for 48 hrs by microbroth dilution method; format: functional; conditions: N315, 48 h
[5] = tested on: Staphylococcus aureus; test: Bactericidal activity against methicillin resistant Staphylococcus aureus N315 cultured in MH medium assessed as reduction in bacterial survival incubated for 48 hrs by microbroth dilution method; format: functional; conditions: N315, 48 h
[6] = tested on: Staphylococcus epidermidis; test: Antibacterial activity against Staphylococcus epidermidis ATCC 14990 cultured in MH medium assessed as reduction in bacterial growth incubated for 48 hrs by microbroth dilution method; format: functional; conditions: ATCC 14990, 48 h
[7] = tested on: Staphylococcus epidermidis; test: Bactericidal activity against Staphylococcus epidermidis ATCC 14990 cultured in MH medium assessed as reduction in bacterial survival incubated for 48 hrs by microbroth dilution method; format: functional; conditions: ATCC 14990, 48 h
[8] = tested on: Enterococcus hirae; test: Antibacterial activity against Enterococcus hirae ATCC 1052 cultured in BHI medium assessed as reduction in bacterial growth incubated for 48 hrs by microbroth dilution method; format: functional; conditions: ATCC 1052, 48 h
[9] = tested on: Bacillus spizizenii; test: Antibacterial activity against Bacillus subtilis ATCC 6633 cultured in MH medium assessed as reduction in bacterial growth incubated for 48 hrs by microbroth dilution method; format: functional; conditions: ATCC 6633, 48 h
[10] = tested on: Bacillus spizizenii; test: Bactericidal activity against Bacillus subtilis ATCC 6633 cultured in MH medium assessed as reduction in bacterial survival incubated for 48 hrs by microbroth dilution method; format: functional; conditions: ATCC 6633, 48 h
[11] = tested on: Escherichia coli; test: Antibacterial activity against Escherichia coli ATCC 8739 cultured in MH medium assessed as reduction in bacterial growth incubated for 48 hrs by microbroth dilution method; format: functional; conditions: ATCC 8739, 48 h
[12] = tested on: Escherichia coli; test: Bactericidal activity against Escherichia coli ATCC 8739 cultured in MH medium assessed as reduction in bacterial survival incubated for 48 hrs by microbroth dilution method; format: functional; conditions: ATCC 8739, 48 h
[13] = tested on: Pseudomonas aeruginosa; test: Antibacterial activity against Pseudomonas aeruginosa ATCC 9027 cultured in MH medium assessed as reduction in bacterial growth incubated for 48 hrs by microbroth dilution method; format: functional; conditions: ATCC 9027, 48 h
[14] = tested on: Pseudomonas aeruginosa; test: Bactericidal activity against Pseudomonas aeruginosa ATCC 9027 cultured in MH medium assessed as reduction in bacterial survival incubated for 48 hrs by microbroth dilution method; format: functional; conditions: ATCC 9027, 48 h
[15] = tested on: Proteus vulgaris; test: Antibacterial activity against Proteus vulgaris NCTC 4635 cultured in MH medium assessed as reduction in bacterial growth incubated for 48 hrs by microbroth dilution method; format: functional; conditions: NCTC 4635, 48 h
[16] = tested on: Proteus vulgaris; test: Bactericidal activity against Proteus vulgaris NCTC 4635 cultured in MH medium assessed as reduction in bacterial survival incubated for 48 hrs by microbroth dilution method; format: functional; conditions: NCTC 4635, 48 h
[17] = tested on: Staphylococcus aureus; test: Antibacterial activity against methicillin resistant Staphylococcus aureus 6347 cultured in MH medium assessed as reduction in bacterial growth incubated for 48 hrs by microbroth dilution method; format: functional; conditions: Staphylococcus aureus, 6347, 48 h
[18] = tested on: Staphylococcus aureus; test: Bactericidal activity against methicillin resistant Staphylococcus aureus 6347 cultured in MH medium assessed as reduction in bacterial survival incubated for 48 hrs by microbroth dilution method; format: functional; conditions: Staphylococcus aureus, 6347, 48 h
[19] = tested on: Staphylococcus epidermidis; test: Antibacterial activity against methicillin resistant Staphylococcus epidermidis ATCC 13199 cultured in MH medium assessed as reduction in bacterial growth incubated for 48 hrs by microbroth dilution method; format: functional; conditions: ATCC 13199, 48 h
[20] = tested on: Staphylococcus epidermidis; test: Bactericidal activity against methicillin resistant Staphylococcus epidermidis ATCC 13199 cultured in MH medium assessed as reduction in bacterial survival incubated for 48 hrs by microbroth dilution method; format: functional; conditions: ATCC 13199, 48 h
[21] = tested on: Streptococcus pneumoniae; test: Antibacterial activity against Streptococcus pneumoniae cultured in MH medium assessed as reduction in bacterial growth incubated for 48 hrs by microbroth dilution method; format: functional
[22] = tested on: Serratia marcescens; test: Antibacterial activity against Serratia marcescens ATCC 12795 cultured in MH medium assessed as reduction in bacterial growth incubated for 48 hrs by microbroth dilution method; format: functional; conditions: ATCC 12795, 48 h
[23] = tested on: Serratia marcescens; test: Bactericidal activity against Serratia marcescens ATCC 12795 cultured in MH medium assessed as reduction in bacterial survival incubated for 48 hrs by microbroth dilution method; format: functional; conditions: ATCC 12795, 48 h
[24] = tested on: Escherichia coli; test: Antibacterial activity against […] Escherichia coli ATCC 8739 assessed as reduction in bacterial growth incubated for 48 hrs in presence of 50 ug/ml […], PAbetaN by microbroth dilution method; format: functional; conditions: ATCC 8739, 48 h
[25] = tested on: Escherichia coli; test: Bactericidal activity against […] Escherichia coli ATCC 8739 assessed as reduction in bacterial survival incubated for 48 hrs in presence of 50 ug/ml […], PAbetaN by microbroth dilution method; format: functional; conditions: ATCC 8739, 48 h
[26] = tested on: HEK293; test: Cytotoxicity against human HEK293 cells assessed as cell viability upto 20 uM incubated for 72 hrs by MTT assay; format: cell-based; conditions: hek293, 72 h
[27] = tested on: HEK293; test: Cytotoxicity against human HEK293 cells assessed as changes in cell morphology upto 20 uM incubated for 72 hrs by MTT assay; format: cell-based; conditions: hek293, 72 h
[28] = tested on: Enterococcus hirae; test: Bactericidal activity against Enterococcus hirae ATCC 1052 cultured in BHI medium assessed as reduction in bacterial survival incubated for 48 hrs by microbroth dilution method; format: functional; conditions: ATCC 1052, 48 h
[29] = tested on: Streptococcus pneumoniae; test: Bactericidal activity against Streptococcus pneumoniae cultured in MH medium assessed as reduction in bacterial survival incubated for 48 hrs by microbroth dilution method; format: functional

SMILES	log K [1]	MIC [2] [µg/mL]	MBC [3] [µg/mL]	MIC [4] [µg/mL]	MBC [5] [µg/mL]	MIC [6] [µg/mL]	MBC [7] [µg/mL]	MIC [8] [µg/mL]	MIC [9] [µg/mL]	MBC [10] [µg/mL]	MIC [11] [µg/mL]	MBC [12] [µg/mL]	MIC [13] [µg/mL]	MBC [14] [µg/mL]	MIC [15] [µg/mL]	MBC [16] [µg/mL]	MIC [17] [µg/mL]	MBC [18] [µg/mL]	MIC [19] [µg/mL]	MBC [20] [µg/mL]	other results
CCn1cc(C(=O)O)c(=O)c2cc(F)c(N3CC[N+]4(CN5C(C)=CC(C)=C(C(=O)O)C5=N4)C(C)C3)c(F)c21.[Cl-] (stereo not given)	-0.4791	64	64	128	128	32	64	> 512	8	8	4	8	128	> 512	1	1	128	128	16	32	MIC [21]: > 512 µg/mL; MIC [22]: 64 µg/mL; MBC [23]: 64 µg/mL; MIC [24]: 2 µg/mL; MBC [25]: 4 µg/mL; Activity [26]: Non-Toxic; Activity [27]: Non-Toxic
CC1=CC(C)=C(C(=O)O)C2=N[N+]3(CCN(c4cc5c(cc4F)c(=O)c(C(=O)O)cn5C4CC4)CC3)CN12.[Cl-]	-0.3214	128	128	32	32	64	64	> 512	8	8	8	8	128	128	2	2	128	128	4	8	MIC [21]: > 512 µg/mL; MIC [22]: 64 µg/mL; MBC [23]: 64 µg/mL; MIC [24]: 0.5 µg/mL; MBC [25]: 2 µg/mL; Activity [26]: Non-Toxic; Activity [27]: Non-Toxic
CCn1cc(C(=O)O)c(=O)c2cc(F)c(N3CC[N+]4(CC3)CN3C(C)=CC(C)=C(C(=O)O)C3=N4)nc21.[Cl-]	-0.3984	128	128	128	128	128	128	16	16	16	8	16	512	512	1	2	128	128	64	128	MBC [28]: 32 µg/mL; MIC [21]: > 512 µg/mL; MIC [22]: 64 µg/mL; MBC [23]: 128 µg/mL; MIC [24]: 4 µg/mL; MBC [25]: 16 µg/mL; Activity [26]: Non-Toxic; Activity [27]: Non-Toxic
C[C@@H]1CN(c2c(F)c(N)c3c(=O)c(C(=O)O)cn(C4CC4)c3c2F)C[C@H](C)N1 [SPARFLOXACIN]	0.1161	0.125 (≈ 0.319 µM)	0.25 (≈ 0.637 µM)	0.125 (≈ 0.319 µM)	0.125 (≈ 0.319 µM)	0.125 (≈ 0.319 µM)	0.125 (≈ 0.319 µM)	32 (≈ 81.5 µM)	0.063 (≈ 0.161 µM)	0.063 (≈ 0.161 µM)	0.016 (≈ 0.0408 µM)	0.032 (≈ 0.0815 µM)	0.125 (≈ 0.319 µM)	0.125 (≈ 0.319 µM)	0.004 (≈ 0.0102 µM)	0.008 (≈ 0.0204 µM)	0.063 (≈ 0.161 µM)	0.063 (≈ 0.161 µM)	0.032 (≈ 0.0815 µM)	0.032 (≈ 0.0815 µM)	MBC [28]: 32 µg/mL (≈ 81.5 µM); MIC [21]: 0.25 µg/mL (≈ 0.637 µM); MBC [29]: 128 µg/mL (≈ 326 µM); MIC [22]: 0.5 µg/mL (≈ 1.27 µM); MBC [23]: 1 µg/mL (≈ 2.55 µM)
CCn1cc(C(=O)O)c(=O)c2cc(F)c(N3CCNCC3)cc21 [NORFLOXACIN]	0.1033	0.25 (≈ 0.783 µM)	0.25 (≈ 0.783 µM)	1 (≈ 3.13 µM)	2 (≈ 6.26 µM)	0.5 (≈ 1.57 µM)	2 (≈ 6.26 µM)	64 (≈ 200 µM)	0.125 (≈ 0.391 µM)	0.125 (≈ 0.391 µM)	0.032 (≈ 0.1 µM)	0.063 (≈ 0.197 µM)	0.25 (≈ 0.783 µM)	0.25 (≈ 0.783 µM)	0.016 (≈ 0.0501 µM)	0.016 (≈ 0.0501 µM)	1 (≈ 3.13 µM)	1 (≈ 3.13 µM)	0.125 (≈ 0.391 µM)	0.125 (≈ 0.391 µM)	MBC [28]: 64 µg/mL (≈ 200 µM); MIC [21]: 128 µg/mL (≈ 401 µM); MBC [29]: > 512 µg/mL; MIC [22]: 0.25 µg/mL (≈ 0.783 µM); MBC [23]: 0.25 µg/mL (≈ 0.783 µM)
COc1c(N2CC[N+]3(CN4C(=N3)C(C(=O)O)=Cc3ccccc34)C(C)C2)c(F)cc2c(=O)c(C(=O)O)cn(C3CC3)c12.[Cl-] (stereo not given)	-0.1255	16	16	32	32	32	32	> 512	32	32	0.25	0.5	128	128	4	4	16	16	4	8	MIC [21]: 128 µg/mL; MBC [29]: 256 µg/mL; MIC [22]: 64 µg/mL; MBC [23]: 64 µg/mL; MIC [24]: 0.125 µg/mL; MBC [25]: 0.5 µg/mL; Activity [26]: Non-Toxic; Activity [27]: Non-Toxic
